The values that follow are results of earlier work, collected in patent US20250114373A1, “[…] INSERT COMPRISING AN ANTIMICROBIAL AGENT” (OCULAR THERAPEUTIX, INC., priority 2022, published 2025).

Common to all, as to conditions: values from Proksch, 2009
The test system of series [1] is S. pneumoniae.
Series [2] relates to S. epidermidis.
Series [3] concerns S. aureus.
In series [4] the test system is H. influenzae.

With `N[C@@H]1CCCCN(c2c(F)cc3c(=O)c(C(=O)O)cn(C4CC4)c3c2Cl)C1` [Besifloxacin, (R)-7-(3-aminohexahydro-1H-azepin-1-yl)-8-chloro-1-cyclopropyl-6-fluoro-1,4-dihydro-4-oxo-3-quinolinecarboxylic acid], the MIC90 entry in series [1] is “(MIC90 of 0.125 μg/mL”; in series [2], “(MIC90 of 0.5 μg/mL”; in series [3], “(MIC90 of 0.25 μg/mL”; in series [4], “(MIC90 of 0.06 μg/mL”.
